From paper PMC3945162 (Psychopharmacology, 2013)
“And” between values parts separate entries of the source, which are not always exact repeats. Equal values may be shown once. Read-outs that look alike come from different tables or passages of the source.

What was measured:
hNET [1] = target: T1, hNET (Homo sapiens, UniProt P23975); test: biochemical; format: binding
Male Swiss–Webster mice = test: Locomotor activity; format: in vivo, mouse
Male Sprague-Dawley rats = test: Adverse effects observed during drug discrimination test sessions; format: in vivo, rat; settings: 25 mg/kg i.p.
hDAT [2] = target: T2, hDAT (Homo sapiens, UniProt Q01959); test: [125I]RTI-55 binding, HEK-hDAT cells
[3] = tested on: rats trained to discriminate DOM (0.5 mg/kg) from saline; format: in vivo, rat; settings: for Maximum %DAR (drug-appropriate responding): i.p., at dose of maximum DAR
hSERT [4] = target: T3, hSERT (Homo sapiens, UniProt P31645); test: [3H]Serotonin release, HEK-hSERT cells; format: cell-based
hSERT [5] = target: T3, hSERT; test: [125I]RTI-55 binding, HEK-hSERT cells
human 5-HT2A receptor [6] = target: T4, human 5-HT2A receptor (Homo sapiens, UniProt P28223); test: IP-1 formation, HEK-5-HT2A cells; format: cell-based; settings: for Emax: read-out: 5-HT2A Function IP-1 formation % maximal effect
human 5-HT1A receptor [7] = target: T5, human 5-HT1A receptor (Homo sapiens, UniProt P08908); test: [3H]8-OH-DPAT binding, HEK-5-HT1A
T5 sequence (P08908 1-422): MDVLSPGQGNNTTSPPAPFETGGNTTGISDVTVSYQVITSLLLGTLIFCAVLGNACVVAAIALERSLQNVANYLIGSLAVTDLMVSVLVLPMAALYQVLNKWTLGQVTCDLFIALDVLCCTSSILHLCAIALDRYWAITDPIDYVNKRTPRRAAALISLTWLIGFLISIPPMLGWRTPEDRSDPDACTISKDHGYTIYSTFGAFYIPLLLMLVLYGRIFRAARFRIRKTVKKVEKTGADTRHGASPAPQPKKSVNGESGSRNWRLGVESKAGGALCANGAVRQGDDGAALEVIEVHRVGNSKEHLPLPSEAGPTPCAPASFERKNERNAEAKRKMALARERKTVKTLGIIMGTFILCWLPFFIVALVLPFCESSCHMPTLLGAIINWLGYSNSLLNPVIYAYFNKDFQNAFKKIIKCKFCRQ

human 5-HT2C receptor [8] = target: T6, human 5-HT2C receptor (Homo sapiens, UniProt P28335); test: biochemical; format: binding
T6 sequence (P28335 33-458): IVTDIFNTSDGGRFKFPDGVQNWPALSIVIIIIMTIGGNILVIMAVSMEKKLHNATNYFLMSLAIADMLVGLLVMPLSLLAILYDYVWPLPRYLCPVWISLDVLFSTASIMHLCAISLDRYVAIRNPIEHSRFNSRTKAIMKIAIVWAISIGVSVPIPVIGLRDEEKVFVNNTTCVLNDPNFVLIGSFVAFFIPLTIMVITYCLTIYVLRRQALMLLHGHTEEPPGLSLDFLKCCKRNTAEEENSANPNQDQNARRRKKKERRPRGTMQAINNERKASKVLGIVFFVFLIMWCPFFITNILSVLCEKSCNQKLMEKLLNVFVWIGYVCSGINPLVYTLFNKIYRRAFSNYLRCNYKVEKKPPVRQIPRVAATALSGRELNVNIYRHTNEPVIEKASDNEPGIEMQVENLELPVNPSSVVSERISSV

[9] = tested on: rats trained to discriminate DMT (5 mg/kg) from saline; format: in vivo, rat; settings: for Dose(s) that decreased response rate: rat, in vivo
hDAT [10] = target: T2, hDAT; test: [3H]Dopamine release, HEK-hDAT cells; format: cell-based; settings: HEK-hDAT cells
[11] = tested on: rats trained to discriminate LSD (0.1 mg/kg) from saline; format: in vivo, rat; settings: for Rate of responding at dose of maximum DAR / Maximum %DAR (drug-appropriate responding): LSD-trained rats; for Maximum %DAR (drug-appropriate responding): i.p., at dose of maximum DAR
human 5-HT1A receptor [12] = target: T5, human 5-HT1A receptor; test: [35S]GTPγS binding functional assay, HEK-5-HT1A; format: biochemical; settings: for Emax: read-out: 5-HT1A Function [35S]GTPγS Binding % maximal effect
[13] = tested on: rats trained to discriminate METH (1 mg/kg) from saline; format: in vivo, rat
hNET [14] = target: T1, hNET; test: cell-based
human 5-HT2A receptor [15] = target: T4, human 5-HT2A receptor; test: [125I]DOI binding, HEK-5-HT2A cells
human 5-HT2C receptor [16] = target: T6, human 5-HT2C receptor; test: cell-based; settings: for Emax: read-out: 5-HT2C Function IP-formation % maximal effect
[17] = tested on: rats trained to discriminate MDMA (1.5 mg/kg) from saline; format: in vivo, rat; settings: for Rate of responding at dose of maximum DAR / Maximum %DAR (drug-appropriate responding): MDMA-trained rats; for Maximum %DAR (drug-appropriate responding): i.p., at dose of maximum DAR; for Dose(s) that decreased response rate: rat, in vivo
hSERT [18] = target: T3, hSERT; test: [3H]Serotonin uptake, HEK-hSERT cells; format: cell-based
human 5-HT2A receptor [19] = target: T4, human 5-HT2A receptor; test: [3H]AA release from HEK-5-HT2A cells; format: cell-based; settings: for Emax: read-out: 5-HT2A Function [3H]AA release % maximal effect
hNET [20] = target: T1, hNET; test: cell-based; remark: listed apart in the source
hDAT [21] = target: T2, hDAT; test: [3H]Dopamine uptake, HEK-hDAT cells; format: cell-based
[22] = DMT-trained rats, 15 min pretreatment
[23] = METH-trained rats, 15 min pretreatment

T4 sequence (P28223 whole entry): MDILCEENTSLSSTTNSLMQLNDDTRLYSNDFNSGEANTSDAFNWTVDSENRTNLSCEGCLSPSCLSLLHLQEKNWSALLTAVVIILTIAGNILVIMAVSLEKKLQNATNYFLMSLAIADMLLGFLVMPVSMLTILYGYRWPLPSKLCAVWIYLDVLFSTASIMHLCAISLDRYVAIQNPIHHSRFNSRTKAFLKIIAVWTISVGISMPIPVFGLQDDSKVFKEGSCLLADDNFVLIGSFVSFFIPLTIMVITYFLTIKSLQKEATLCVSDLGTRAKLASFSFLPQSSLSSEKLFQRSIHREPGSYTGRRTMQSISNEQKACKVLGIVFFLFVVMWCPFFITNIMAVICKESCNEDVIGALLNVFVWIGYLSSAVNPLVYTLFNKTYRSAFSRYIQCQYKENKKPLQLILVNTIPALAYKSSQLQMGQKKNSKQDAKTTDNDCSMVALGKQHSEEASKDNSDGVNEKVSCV
T3 sequence (P31645 whole entry): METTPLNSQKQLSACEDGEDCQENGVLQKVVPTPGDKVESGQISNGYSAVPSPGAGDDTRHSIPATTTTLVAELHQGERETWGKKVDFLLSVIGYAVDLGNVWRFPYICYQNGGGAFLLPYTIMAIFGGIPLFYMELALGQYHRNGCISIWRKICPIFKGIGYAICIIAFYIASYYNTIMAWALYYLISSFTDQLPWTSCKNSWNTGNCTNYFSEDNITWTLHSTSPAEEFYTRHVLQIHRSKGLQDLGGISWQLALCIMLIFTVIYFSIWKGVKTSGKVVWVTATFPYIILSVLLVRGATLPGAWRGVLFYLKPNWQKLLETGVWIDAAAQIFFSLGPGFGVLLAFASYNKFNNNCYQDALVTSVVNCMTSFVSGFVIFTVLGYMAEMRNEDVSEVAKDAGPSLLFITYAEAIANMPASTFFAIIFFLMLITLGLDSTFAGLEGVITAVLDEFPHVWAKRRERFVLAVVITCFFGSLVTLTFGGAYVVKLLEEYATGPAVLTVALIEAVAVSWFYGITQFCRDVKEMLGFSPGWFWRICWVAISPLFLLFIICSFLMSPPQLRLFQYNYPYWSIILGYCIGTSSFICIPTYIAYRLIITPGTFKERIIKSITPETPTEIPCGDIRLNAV
T1 sequence (P23975 whole entry): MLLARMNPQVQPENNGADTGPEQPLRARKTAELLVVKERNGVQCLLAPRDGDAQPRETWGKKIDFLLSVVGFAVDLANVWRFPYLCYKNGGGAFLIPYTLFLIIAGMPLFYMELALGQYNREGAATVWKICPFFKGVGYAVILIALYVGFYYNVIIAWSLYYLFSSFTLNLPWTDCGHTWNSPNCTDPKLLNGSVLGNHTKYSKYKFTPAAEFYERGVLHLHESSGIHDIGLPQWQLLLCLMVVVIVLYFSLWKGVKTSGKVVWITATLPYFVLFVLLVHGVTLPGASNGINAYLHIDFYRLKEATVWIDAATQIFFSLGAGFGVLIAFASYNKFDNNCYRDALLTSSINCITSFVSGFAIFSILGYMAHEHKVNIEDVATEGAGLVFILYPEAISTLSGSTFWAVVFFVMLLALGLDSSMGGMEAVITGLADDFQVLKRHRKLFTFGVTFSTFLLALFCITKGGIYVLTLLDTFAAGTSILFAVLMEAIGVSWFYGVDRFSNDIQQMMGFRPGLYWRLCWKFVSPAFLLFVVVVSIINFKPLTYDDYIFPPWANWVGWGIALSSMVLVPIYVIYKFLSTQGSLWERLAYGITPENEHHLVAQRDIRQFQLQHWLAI
T2 sequence (Q01959 whole entry): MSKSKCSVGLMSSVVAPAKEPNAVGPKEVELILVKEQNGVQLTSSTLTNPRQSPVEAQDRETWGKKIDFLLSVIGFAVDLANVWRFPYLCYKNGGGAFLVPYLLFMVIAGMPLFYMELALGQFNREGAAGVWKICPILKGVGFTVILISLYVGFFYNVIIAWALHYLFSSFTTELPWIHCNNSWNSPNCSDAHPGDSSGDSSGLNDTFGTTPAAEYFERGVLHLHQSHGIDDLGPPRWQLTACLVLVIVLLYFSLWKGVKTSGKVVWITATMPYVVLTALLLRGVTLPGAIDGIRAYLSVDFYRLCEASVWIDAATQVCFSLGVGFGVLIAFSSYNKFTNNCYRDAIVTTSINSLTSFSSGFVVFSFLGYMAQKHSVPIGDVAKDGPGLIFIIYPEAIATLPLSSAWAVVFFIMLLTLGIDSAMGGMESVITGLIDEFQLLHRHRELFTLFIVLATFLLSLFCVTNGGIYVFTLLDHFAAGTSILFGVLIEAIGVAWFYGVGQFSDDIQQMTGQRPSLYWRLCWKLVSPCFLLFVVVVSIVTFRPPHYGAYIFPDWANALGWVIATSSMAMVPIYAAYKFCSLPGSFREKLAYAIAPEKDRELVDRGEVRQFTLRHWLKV

Row | SMILES | Ki (hNET [1]) | Onset of depressant effects (within, after injection) (Male Swiss–Webster mice; mice, i.p.) | Ki (hDAT [2]) | [3H]Serotonin release % PCA maximal effect (hSERT [4]) | Ki (hSERT [5]) | EC50 (human 5-HT2A receptor [6]) | Emax (human 5-HT2A receptor [6]) | Ki (human 5-HT1A receptor [7]) | Ki (human 5-HT2C receptor [8]) | Rate of responding at dose of maximum DAR [9, 22] | [3H]Dopamine release % METH maximal effect (hDAT [10]) | Rate of responding at dose of maximum DAR ([11]; 15 min pretreatment) | Maximum %DAR (drug-appropriate responding) ([11]; 15 min pretreatment) | EC50 (human 5-HT1A receptor [12]) | Emax (human 5-HT1A receptor [12]) | Rate of responding at dose of maximum DAR [13, 23] | IC50 (hNET [14]) | Ki (human 5-HT2A receptor [15]) | EC50 (human 5-HT2C receptor [16]) | Emax (human 5-HT2C receptor [16]) | other results
1 | COc1cc(CCN)c(OC)cc1Cl [2C-C, 2,5-dimethoxy-4-chlorophenethylamine] | > 7600 nM | ≤ 10 min | > 10000 nM | ND Minimal | > 10000 nM | 40.1 ± 4.7 nM | 102 ± 5.5% | 740 ± 170 nM | 5.4 ± 1.2 nM | 0.235±0.098 resp/s | ND Minimal | 0.200±0.079 resp/s | 75% and 75±25 ^2% | > 10000 nM | < 25% | 0.156±0.096 resp/s | > 9500 nM | 5.47 ± 0.68 nM | 24.2 ± 5.6 nM | 93.5 ± 6.5% | Convulsions (mice affected/tested) (Male Swiss–Webster mice; 100 mg/kg i.p., at 30 min): 2/8; Tremors (mice affected/tested) (Male Swiss–Webster mice; 100 mg/kg i.p., at 30 min): 6/8; Lethality (mice) (Male Swiss–Webster mice; 100 mg/kg i.p., within 120 min): 1/8; Reddening of the extremities (rats affected/tested) (Male Sprague-Dawley rats): 3/3; Salivation (rats affected/tested) (Male Sprague-Dawley rats): 1/3; Rate of responding at dose of maximum DAR ([3]; 15 min pretreatment): 0.366±0.070 resp/s; Maximum %DAR (drug-appropriate responding) ([3]; 15 min pretreatment): 82±16 %; Dose(s) that decreased response rate [9]: 10 mg/kg; Dose(s) that decreased response rate ([11]; rat, in vivo): 10 mg/kg; Dose(s) that decreased response rate ([13]; rat, in vivo): 25 mg/kg; Rate of responding at dose of maximum DAR ([17]; 15 min pretreatment): 0.244±0.086 resp/s; Maximum %DAR (drug-appropriate responding) ([17]; 15 min pretreatment): 89±11 %; Dose(s) that decreased response rate [17]: 2.5 mg/kg; IC50 (hSERT [18]): > 9600 nM; EC50 (human 5-HT2A receptor [19]): 13.9 ± 6.1 nM; Emax (human 5-HT2A receptor [19]): 64.2 ± 2.2%; [3H]NE release % METH maximal effect (hNET [20]): ND Minimal; IC50 (hDAT [21]): > 10000 nM
2 | COc1cc(CCN)c(OC)cc1I [2C-I, 2,5-dimethoxy-4-iodophenethylamine] | > 10000 nM | ≤ 10 min | > 10000 nM | ND Minimal | 950 ± 440 nM | 7.9 ± 2.2 nM | 82.4 ± 6.4% | 970 ± 430 nM | 10.2 ± 1.7 nM | 0.480±0.092 resp/s | ND Minimal | 0.233±0.075 resp/s | 80±20 % | 4900 ± 2000 nM | 102 ± 4.7% | 0.447±0.058 resp/s | > 8200 nM | 9.3 ± 3.2 nM | 2.8 ± 1 nM | 79 ± 16% | Doses producing depression of locomotor activity (Male Swiss–Webster mice; mice, i.p.): 3 to 30 mg/kg; Duration of depressant effects (Male Swiss–Webster mice; mice, i.p.): 30 to 60 min; Maximum %DAR (drug-appropriate responding) ([13]; METH-trained rats, i.p., 15 min pretreatment, at dose of maximum DAR): 38% and 38±17 ^1%; Rate of responding at dose of maximum DAR ([17]; 15 min pretreatment): 0.453±0.169 resp/s; Maximum %DAR (drug-appropriate responding) ([17]; 15 min pretreatment): 65% and 65±21 ^1%; Dose(s) that decreased response rate [17]: 2.5 to 10 mg/kg; IC50 (hSERT [18]): 5600 ± 2100 nM; Emax (human 5-HT2A receptor [19]): 32.5 ± 1.5%; [3H]NE release % METH maximal effect (hNET [20]): ND Minimal; IC50 (hDAT [21]): > 9600 nM
3 | COc1cc(CC(C)N)c(OC)cc1Cl (centres unmarked) [DOC, 2,5-Dimethoxy-4-chloroamphetamine] | > 7700 nM | ≤ 10 min | > 10000 nM | ND Minimal | > 10000 nM | 10.5 ± 2.6 nM | 102 ± 4.2% | > 9200 nM | 3.57 ± 0.56 nM | 0.354±0.125 resp/s | ND Minimal | 0.402±0.049 resp/s | 81±16 % | > 10000 nM | < 10% | 0.876±0.330 resp/s | > 8400 nM | 4 ± 0.45 nM | 14.6 ± 3 nM | 97 ± 19% | Duration of depressant effects (Male Swiss–Webster mice; mice, i.p.): 30 to 80 min; Rate of responding at dose of maximum DAR ([3]; 15 min pretreatment): 0.708±0.072 resp/s; Rate of responding at dose of maximum DAR ([3]; 60 min pretreatment): 0.493±0.058 resp/s; Maximum %DAR (drug-appropriate responding) ([3]; 15 min pretreatment): 83±17 %; Maximum %DAR (drug-appropriate responding) ([3]; 60 min pretreatment): 87±13 %; Rate of responding at dose of maximum DAR ([9]; DMT-trained rats, 60 min pretreatment): 0.777±0.095 resp/s; Maximum %DAR (drug-appropriate responding) ([9]; DMT-trained rats, i.p., 60 min pretreatment, at dose of maximum DAR): 83±17 %; Dose(s) that decreased response rate [9]: ≥ 1 mg/kg; Rate of responding at dose of maximum DAR ([11]; 60 min pretreatment): 0.410±0.139 resp/s; Maximum %DAR (drug-appropriate responding) ([11]; 60 min pretreatment): 95±3 %; Rate of responding at dose of maximum DAR ([13]; METH-trained rats, 60 min pretreatment): 0.276±0.098 resp/s; Rate of responding at dose of maximum DAR ([17]; 15 min pretreatment): 0.449±0.104 resp/s; Rate of responding at dose of maximum DAR ([17]; 60 min pretreatment): 0.356±0.141 resp/s; Maximum %DAR (drug-appropriate responding) ([17]; 60 min pretreatment): 60% and 60±24 ^2%; IC50 (hSERT [18]): > 8600 nM; EC50 (human 5-HT2A receptor [19]): 2.91 ± 0.66 nM; Emax (human 5-HT2A receptor [19]): 81 ± 16%; [3H]NE release % METH maximal effect (hNET [20]): ND Minimal; IC50 (hDAT [21]): > 10000 nM
